Each compound was assayed against MAPK14 (human) (UniProt Q16539) (assay: TNF-alpha Inhibition (PBMC)). Conditions: not given.
Sequence of MAPK14 (human) (Q16539 whole entry, looked up): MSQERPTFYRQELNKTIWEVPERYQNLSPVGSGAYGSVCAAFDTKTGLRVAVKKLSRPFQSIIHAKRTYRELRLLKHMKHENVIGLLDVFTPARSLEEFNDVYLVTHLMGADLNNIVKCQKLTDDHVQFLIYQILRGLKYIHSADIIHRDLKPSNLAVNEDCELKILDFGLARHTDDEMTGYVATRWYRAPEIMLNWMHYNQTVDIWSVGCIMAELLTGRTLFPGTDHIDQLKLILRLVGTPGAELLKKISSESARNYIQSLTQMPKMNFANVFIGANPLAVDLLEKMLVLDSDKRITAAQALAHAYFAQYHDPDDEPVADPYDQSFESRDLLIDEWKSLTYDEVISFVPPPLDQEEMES

Point of comparison: `CCCCCCC#Cc1nc(-c2ccc(F)cc2)c(-c2ccncc2)n1CCCc1ccccc1`, IC50 90 nM. Against it:
- O[C@@H](C#Cc1nc(-c2ccncc2)c(-c2ccc(F)cc2)[nH]1)c1ccccc1 — 4.4-fold higher, 400 nM
- C[Si](C)(C)CCOCn1c(C#CCCCC#N)nc(-c2ccncc2)c1-c1ccc(F)cc1 — higher, > 2000 nM
- C[Si](C)(C)CCOCn1c(C#CCCCCO)nc(-c2ccncc2)c1-c1ccc(F)cc1 — higher, > 2000 nM

What follows are compounds tested against MAPK14 (UniProt Q16539) (assay: MAPK14 (p38) Inhibition). Conditions: concentration not given here.
Sequence of MAPK14 (Q16539 whole entry, looked up): as above

Point of comparison: `Fc1ccc(-c2[nH]c(C=C(Br)Br)nc2-c2ccncc2)cc1`, inhibition 93%. Against it:
- C[Si](C)(C)CCOCn1c(C=C(Br)Br)nc(-c2ccncc2)c1-c1ccc(F)cc1 — lower, 16%
- OCCCCC#Cc1nc(-c2ccc(F)cc2)c(-c2ccncc2)n1CCCc1ccccc1 — higher, 98%
- OCCCC#Cc1nc(-c2ccc(F)cc2)c(-c2ccncc2)n1CCCc1ccccc1 — higher, 99%

What follows are compounds tested on MAPK14 (BALB/cJ mice) (assay: TNF-alpha Inhibition (Mice Model)). Conditions: dose or concentration not given here.

`N#CCCCC#Cc1nc(-c2ccc(F)cc2)c(-c2ccncc2)[nH]1` gave an inhibition of 95%.

— the Kinase Knowledgebase extract (Sharma et al. 2016)
